Assay results taken from patent US20210196779A1, “Compositions and Methods for Treating Steroid Hormone-Related Diseases or Disorders” (YALE UNIVERSITY, priority 2018, published 2021).

How the values were obtained:
Brd2 = test: Western blot, MCF7 and 22RV1 cells, Brd2; type: cell-based; conditions: MCF7 (with or without E2) or 22RV1 (with or without DHT), 24 h
Description: (§1) Western blot analysis was used to determine the protein expression using protein specific antibodies. β-actin or histone 3 was used to normalize protein loading.
(§2) Total cell lysis was conducted using 2×SDS sample buffer (62.5 mM Tris-HCl, 2% SDS, 10% glycerol, 50 mM DTT, and 0.05% bromophenol blue). The samples were sonicated for 10 s to shear DNA. Cell nuclei were isolated using Tris buffer saline with 0.4% NP40. Cell extracts were then electrophoresed through 10% SDS-polyacrylamide gels and transferred to 0.2 μm nitrocellulose membranes (Bio-Rad Laboratories, Hercules, Calif.) with a Miniprotein II transferring apparatus (Bio-Rad). The membranes were blocked and probed in TBS-T buffer (1×TBS buffer, 0.2% Tween 20) containing 5% non-fat milk. […] Enhanced chemiluminescence reagents (Perkin-Elmer Life Science Products, Boston, Mass.) were used to visualize the immunoreactive bands and the densities of protein bands were scanned analyzed using ImageJ software from the NIH.

Brd4 = test: Western blot, MCF7 and 22RV1 cells, Brd4; type: cell-based; conditions: MCF7 (with or without E2) or 22RV1 (with or without DHT), 24 h
Description: as §1, §2

tumor protein p53 = test: Western blot, MCF7 cells, p53; type: cell-based; conditions: wt MCF7 cells, 24 h
Description: (§3) Western blot analysis was used to determine the protein expression using protein specific antibodies.
as §2, with “milk. Monoclonal rabbit anti-AR (1:5000), was used to detect androgen receptor (Abcam #133273), Glucocorticoid Receptor (D8H2) XP® Rabbit mAb #3660, ERa Antibody (F-10): sc-8002, BRD4 (E2A7X) Rabbit mAb #13440, Brd2 (D89B4) Rabbit mAb #5848, PARP (46D11) Rabbit mAb #9532, Acetyl-Histone H3 (Lys27) (D5E4) XP® Rabbit mAb #8173 and a monoclonal actin antibody diluted 1:2500 (Sigma, St. Louis, Mo.) was used to detect β-actin as the internal control to confirm equal protein loading.” for “milk.”

Gata3 = test: Western blot, MCF7 cells, Gata3; type: cell-based; conditions: 24 h
Description: as §3
as §2, with “milk. Monoclonal rabbit anti-AR (1:5000), was used to detect androgen receptor (Abcam #133273), Glucocorticoid Receptor (D8H2) XP® Rabbit mAb #3660, ERa Antibody (F-10): sc-8002, BRD4 (E2A7X) Rabbit mAb #13440, Brd2 (D89B4) Rabbit mAb #5848, PARP (46D11) Rabbit mAb #9532, Acetyl-Histone H3 (Lys27) (D5E4) XP® Rabbit mAb #8173 and a monoclonal actin antibody diluted 1:2500 (Sigma, St. Louis, Mo.) was used to detect β-actin as the internal control to confirm equal protein loading.” for “milk.”

MDA-MB-453 cells = test: Cell growth assay, MDA-MB-453 breast cancer cells; type: cell-based; conditions: 4 days
Description: (§4) MCF7, T47D, MDA-MB-453, MDA-MB-231 breast cancer cells were grown in corning T75 cell culture flask in RPMI1640 medium supplemented with 5% FBS, 50 μg/ml Kanamycin in a 37° C., 5% CO2 incubator.
(§5) 20,000 cells in 1 ml of medium (phenol red free RPMI1640, 5% charcoal-dialysis FBS, 50 μg/ml Kanamyacin) were seeded per well of a 24-well plate and incubated in a 37° C. incubator with 5% CO2 overnight. Different concentrations of herbal extract were added to each well in order to have final concentrations from 50 μg/ml to 500 μg/ml. For prostate cancer cells, DHT (25 nM) was used to stimulate androgen receptor activity. For glucocorticoid receptor overexpressed LNCaP cells, dexamethasone (50 nM) was used to stimulate glucocorticoid receptor activity. For all breast cancer cells, E2 (10 nM) was used to stimulate ER activity. Control medium without any steroid hormone was used as a control setting. After 4 days of incubation, cells were fixed and stained for 2 h with 0.5% methylene blue in 50% ethanol, followed by washing with tap water to remove unbound dye. Plates were air dried and then cells were dissolved in 1% sarkosyl (sodium lauroyl sarcosinate) by shaking at room temperature for 3 h. Cell growth was quantified based on the amount of methylene blue adsorbed by the cells as measured by a spectrophotometer (Molecular Devices) at 595 nm. […]

[1] = tested on: SGK1 mRNA (target gene of GR); test: qRT-PCR of DEX induced SGK1 mRNA; type: cell-based; conditions: 22RV1 or PC3 cells
Description: FIGS. 5D-5E are graphs showing the effect of Y1830, RG (or the fraction comprising RG), and RGA (or the fraction comprising RGA) on the DEX induced glucocorticoid receptor mediated transcriptional response of 22RV1 and PC3 PSA-luciferase reporter cells. FIGS. 5F-5G are graphs showing the effect of Y1830 on SGK1 (target gene of GR) mRNA expression with or without DEX using qRT-PCR.
(§6) RNA was extracted from herb treated cells using the Roche High Pure RNA isolation kit. cDNA was then generated from RNA samples using a Bio-rad iScript Advanced cDNA synthesis kit for RT-qPCR. qPCR was performed using human NRF2, H01, NQO1 and β-actin primers (Table 1) and iTaq™ Universal SYBR® Green Supermix in a CFX PCR machine (Bio-rad). Relative mRNA expression was calculated based on the change of the threshold cycle relative to the internal control, β-actin, using a standard curve generated by purified PCR products.

22RV1 tumor = test: Inhibition of 22RV1 prostate cancer growth in nude mice; type: in vivo; conditions: equivalent dose to Y1830 (2.2 mg/kg, PO, B.I.D.), 11 days
Description: 22RV1 prostate cancer cells 5×10^6 cells in 100 μl Matrigel were injected subcutaneously into 10 week old male NCR nude mice. When 22RV1 tumor reached 5 mm×5 mm, mice were orally fed with Y1830 (water extract, 500 mg/kg, PO, B.I.D, N5) and RGA (or the fraction comprising RGA) (equivalent dose to Y1830: 2.2 mg/kg, PO, B.I.D.) for 11 days. Tumor volume was estimated by using the formula length×width^2/2.
When tumors reached 5 mm×5 mm, Y1830 water extract (500 mg/kg, BID, PO) and RGA (or the fraction comprising RGA) at equivalent dose to Y1830 were used to treat animals for 11 days. […] Therefore, it is further concluded that compounds other than molecules in RGA containing fraction of Y1830 total extract may also have anti-tumor activity or prevent tumor to develop drug resistant.

PSA mRNA = test: qRT-PCR of PSA mRNA in 22RV1 cells; type: cell-based, Human; conditions: 22RV1 cells treated overnight, normalized to beta-actin
Description: FIGS. 4C-4D are graphs showing the effect of Y1830, RG (or the fraction comprising RG) and RGA (or the fraction comprising RGA) on the mRNA of PSA (FIG. 4C) and KLK2 (FIG. 4D). 22RV1 cells were treated with Y1830, RGA or RG overnight and mRNA was extracted for qRT-PCR to determine the mRNA expression level of PSA and KLK2 as normalized to beta-actin.
as §6

MCF7 cells = test: Cell growth assay, MCF7 breast cancer cells; type: cell-based; conditions: in the presence or absence of E2, 4 days
Description: as §4, §5

## CC(=O)OCC1OC(Oc2cc3c(c(O)c2C)C(=O)c2ccc(O)cc2C3=O)C(OC2OC(C)C(O)C(O)C2O)C(O)C1O [RGA, 1,3,6-Trihydroxy-2-methyl-9,10-anthracenedione 3-O-[α-L-Rhamnopyranosyl-(1→2)-6-O-acetyl-β-D-glucopyranoside]]
Brd2
  Brd2 protein expression: decreased
Brd4
  Brd4 protein expression: decreased
Tumor protein p53
  p53 protein expression: downregulated
Gata3
  Gata3 protein expression: downregulation
MDA-MB-453 cells
  inhibition of growth of double negative MDA-MB-453 cells: inhibited the growth
[1]
  inhibition of DEX induced SGK1 mRNA expression: inhibited
22RV1 tumor
  inhibition on 22RV1 tumor growth: significant inhibition on 22RV1 tumor growth from day 2 to day 6

## Cc1c(OC2OC(CO)C(O)C(O)C2OC2OC(C)C(O)C(O)C2O)cc2c(c1O)C(=O)c1ccc(O)cc1C2=O [RG, 1,3,6-Trihydroxy-2-methyl-9,10-anthracenedione 3-O-[α-L-Rhamnopyranosyl-(1→2)-β-D-glucopyranoside]]
PSA mRNA
  inhibition of mRNA expression of PSA: did not demonstrate this level of activity
MCF7 cells
  inhibition on the growth of MCF7 cells: very weak growth inhibition
